Reference: PMC10384408, “Anticancer Tungstenocenes with a Diverse Set of (O,O–), (O,S–) and (O,N–) Chelates—A Detailed Biological Study Using an Improved Evaluation via 3D Spheroid Models” (Pharmaceutics, 2023)
Where “and” joins values, the source holds several entries; their conditions need not be identical. Equal entries are not always repeated.

What was measured:
[1] = test system: HCT116, HT29 and MCF-7 cell lines; assay: ROS detection (DCFH-DA assay); format: cell-based, human; details: 2, 20, 100 and 200 µM, 2 h
Protocol: Reactive oxygen species (ROS) generation was measured by means of the DCFH-DA assay. […] On the following day, cells were washed with 200 µL Hanks’ balanced salt solution (HBSS, Sigma-Aldrich, containing 1% FBS) and stained with 100 µL of 25 µM DCFH-DA (2′,7′-dichlorofluorescein diacetate, Sigma-Aldrich) in HBSS (containing 1% FBS) for 45 min at 37 °C in the dark. After the incubation period, cells were washed with 200 µL HBSS (1% FBS) and loaded with compounds at concentrations of 2 µM, 20 µM, 100 µM and 200 µM in 200 µL phenol-red-free MEM (1% FBS) in triplicates. As positive controls, cells were treated with 200 µM and 400 µM tert-butylhydroperoxide (Sigma-Aldrich). Wells containing only phenol-red-free medium with 1% FBS were used as blanks, and non-drug treated, cell containing wells as reference values. Fluorescence (excitation: 485/20 nm, emission: 516/20 nm) was recorded in 10 min intervals with the Synergy HT reader (BioTek) over 2 h.

[2] = test system: IMR-90 human lung fibroblasts; assay: MTT cytotoxicity assay, IMR-90 fibroblasts; format: cell-based; details: exposure time 96 h, mean ± SD
Protocol: (§1) CH1/PA-1 (ovarian teratocarcinoma), SW480 (colon carcinoma) and A549 (non-small cell lung cancer) cells were maintained as described in the reference. IMR-90 human fetal lung fibroblasts (from the European Collection of Authenticated Cell Cultures, Porton Down, Salisbury, UK) were cultured in Stable Cell^TM DMEM/F12 supplemented with 0.01 mg/mL human recombinant insulin (both purchased from Sigma-Aldrich) and 10% fetal bovine serum (FBS, BioWest, Nuaillé, France). Human colon carcinoma cell lines HCT116 and HT29 (both kindly provided by the Institute of Cancer Research, Department of Medicine I, Medical University of Vienna, Austria) were cultured in McCoy’s 5a medium supplemented with 4 mM L-glutamine (both purchased from Sigma-Aldrich) and 10% FBS. MCF-7 human breast adenocarcinoma cells (kindly provided by M. Ogris, Department of Pharmaceutical Sciences, University of Vienna, Austria) were maintained in DMEM (high glucose) supplemented with 4 mM L-glutamine, 0.1 mg/mL human insulin (all purchased from Sigma-Aldrich) and 10% FBS. All cell lines were grown as monolayers in 75 cm^2 culture flasks (CytoOne, Starlab, Hamburg, Germany) at 37 °C in a humidified atmosphere containing 5% CO2.
(§2) Exponentially growing cells were plated into 96-well microculture plates (CytoOne, tissue culture treated, Starlab, Hamburg, Germany) in densities of 1 × 10^3 CH1/PA-1, 2 × 10^3 SW480, 3 × 10^3 A549 and 7 × 10^3 IMR-90 cells per well (each in 100 µL). After a 24 h preincubation, drugs were added in serial dilution to give a final volume of 200 µL/well and exposed for 96 h. At the end of the exposure, the drug solutions were replaced by 100 µL RPMI 1640/MTT mixture (7:1 ratio). MTT (3-(4,5-dimethylthiazol-2-yl)-2,5-diphenyl-2H-tetrazolium bromide), (Acros Organics, Geel, Belgium) solution was prepared in phosphate-buffered saline (5 mg/mL) and mixed with RPMI1640 medium supplemented with 4 mM L-glutamine (both from Sigma-Aldrich) and 10% FBS. After 4 h incubation, the formazan crystals were solubilized in 150 µL of DMSO per well. Absorbance was measured at 550 nm (and at 690 nm as a reference) with a microplate reader (ELx808, BioTek, Winoosky, VT, USA) and Gen5^TM 3.08 software (BioTek). The 50% inhibitory concentrations (IC50) relative to untreated controls were interpolated from concentration-effect curves. At least three biologically and technically independent experiments were performed.

[3] = test system: HCT116 multicellular tumor spheroids; assay: Resazurin assay, HCT116 3D spheroids; format: cell-based, human; details: 96 h; for IC50: spheroids
Protocol: as §1
(§3) For growing multicellular tumor spheroids, 400 HCT116, 400 HT29 or 800 MCF-7 cells per well were plated into round-bottom ultra-low attachment 96-well plates (Corning, Glendale, AZ, USA) in the media described above and incubated at 37 °C for 96 h. Spheroids were treated with 10 µM of the two most cytotoxic compounds 3 and 4 for another 96 h. The diameters of the spheroids were measured with Cell^F software under a CKX41 Olympus microscope before treatment and in constant daily intervals over the 96 h treatment period. For statistical analysis the t-test with Welsh’s correction was implemented in GraphPad Prism software (Version 6.01).
(§4) For the resazurin assay in monolayer cultures, cells were seeded into 96-well microculture plates (CytoOne, tissue culture treated, Starlab, Hamburg, Germany) in densities of 2 × 10^3 HCT116, 2 × 10^3 HT29 and 4 × 10^3 MCF-7 cells per well (each in 100 µL). For tests in 3D cultures, spheroids were grown as described above. After 24 h (for monolayers) or 4 days (for spheroids) the test compounds in the appropriate medium were added in serial dilution to the plates to obtain a total volume of 200 µL/well. Wells without cells, containing medium and resazurin (Alfa Aesar, Thermo Fisher, Kandel, Germany) solution were used as blanks. After 96 h exposure 20 µL of the resazurin solution (440 µM) were added to each well, followed by a 4 h (2D) or 12 h (3D) incubation period. Resorufin fluorescence was quantified at 530 nm (and a reference wavelength of 620 nm) by using a microplate reader (Synergy HT, BioTek) with Gen5^TM 3.10 software (BioTek).

[4] = test system: MCF-7 multicellular tumor spheroids; assay: Resazurin assay, MCF-7 3D spheroids; format: cell-based, human; details: 96 h; for IC50: spheroids
Protocol: as §1, §3, §4

HT29 cells = assay: Annexin V-FITC/PI apoptosis assay, HT29; details: HT29, 24 h; for ∑apoptotic cells [%]: sum of early and late
HCT116 cells = assay: Annexin V-FITC/PI apoptosis assay, HCT116; format: cell-based, human; details: HCT116, 24 h; for ∑apoptotic cells [%]: sum of early and late
[5] = test system: CH1/PA-1 (ovarian teratocarcinoma) cells; assay: MTT cytotoxicity assay, CH1/PA-1 monolayer; format: cell-based, human; details: exposure time 96 h, mean ± SD
Protocol: as §1, §2

Row | SMILES | intracellular ROS levels [1] | IC50 [2] [µM] | ratio 3D/2D of IC50 values, HCT116 [3] | IC50 [3] [µM] | ratio 3D/2D of IC50 values, MCF-7 [4] | IC50 [4] [µM] | early apoptotic cells [%] AV+ / PI- (HT29 cells; 2 µM) [%] | late apoptotic cells [%] AV+ / PI+ (HT29 cells; 2 µM) [%] | necrotic cells [%] AV- / PI+ (HT29 cells; 2 µM) [%] | viable cells [%] AV- / PI- (HT29 cells; 2 µM) [%] | ∑apoptotic cells [%] (HT29 cells; 2 µM) | early apoptotic cells [%] AV+ / PI- (HT29 cells; 20 µM) [%] | late apoptotic cells [%] AV+ / PI+ (HT29 cells; 20 µM) [%] | necrotic cells [%] AV- / PI+ (HT29 cells; 20 µM) [%] | viable cells [%] AV- / PI- (HT29 cells; 20 µM) [%] | early apoptotic cells [%] AV+ / PI- (HT29 cells; 200 µM) [%] | late apoptotic cells [%] AV+ / PI+ (HT29 cells; 200 µM) [%] | necrotic cells [%] AV- / PI+ (HT29 cells; 200 µM) [%] | viable cells [%] AV- / PI- (HT29 cells; 200 µM) [%] | IC50 [5] [µM] | other results
1 | F[P-](F)(F)(F)(F)F.O=c1c([O-])c(-c2ccc(Cl)cc2)oc2ccccc12.[W+4].c1cc[cH-]c1.c1cc[cH-]c1 [Compound 3, Bis(η^5-cyclopentadienyl)[2-(4-chlorophenyl)-3-(oxo-κO)-4(H)-chromen-4-oato-κO]tungsten(IV) hexafluorophosphate] | Pronounced elevation of ROS levels | 38.2 ± 0.4 | 2.3 | 21 ± 4 | 6.8 and 7.0 | 44 ± 1 | 4.6 ± 4.1 | 7.2 ± 3.8 | 5.1 ± 4.2 | 83.0 ± 3.8 | 11.8 | 8.6 ± 2.5 | 11.1 ± 1.0 | 5.4 ± 1.2 | 74.9 ± 3.3 | 0.8 ± 0.5 | 82.2 ± 4.1 | 14.9 ± 2.8 | 2.2 ± 1.3 | 2.7 ± 0.4 | ∑apoptotic cells [%] (HT29 cells; 20 µM): 19.7%; early apoptotic cells [%] AV+ / PI- (HCT116 cells; 2 µM): 4.6 ± 1.7%; late apoptotic cells [%] AV+ / PI+ (HCT116 cells; 2 µM): 13.5 ± 0.6%; necrotic cells [%] AV- / PI+ (HCT116 cells; 2 µM): 4.3 ± 0.7%; viable cells [%] AV- / PI- (HCT116 cells; 2 µM): 77.7 ± 1.6%; ∑apoptotic cells [%] (HCT116 cells; 2 µM): 18.1%; early apoptotic cells [%] AV+ / PI- (HCT116 cells; 20 µM): 5.0 ± 0.9%; late apoptotic cells [%] AV+ / PI+ (HCT116 cells; 20 µM): 12.1 ± 2.9%; necrotic cells [%] AV- / PI+ (HCT116 cells; 20 µM): 2.5 ± 0.6%; viable cells [%] AV- / PI- (HCT116 cells; 20 µM): 80.4 ± 2.6%; ∑apoptotic cells [%] (HCT116 cells; 20 µM): 17.1%; early apoptotic cells [%] AV+ / PI- (HCT116 cells; 100 µM): 3.3 ± 1.1%; late apoptotic cells [%] AV+ / PI+ (HCT116 cells; 100 µM): 75.5 ± 5.6%; necrotic cells [%] AV- / PI+ (HCT116 cells; 100 µM): 12.8 ± 0.2%; viable cells [%] AV- / PI- (HCT116 cells; 100 µM): 8.6 ± 4.3%; ∑apoptotic cells [%] (HCT116 cells; 100 µM): 78.8%; early apoptotic cells [%] AV+ / PI- (HCT116 cells; 200 µM): 0.0 ± 0.0%; late apoptotic cells [%] AV+ / PI+ (HCT116 cells; 200 µM): 94.1 ± 4.8%; necrotic cells [%] AV- / PI+ (HCT116 cells; 200 µM): 5.5 ± 4.9%; viable cells [%] AV- / PI- (HCT116 cells; 200 µM): 0.4 ± 0.3%
2 | F[P-](F)(F)(F)(F)F.[O-]c1c(-c2ccc(Cl)cc2)oc2ccccc2c1=S.[W+4].c1cc[cH-]c1.c1cc[cH-]c1 [Compound 4, Bis(η^5-cyclopentadienyl)[2-(4-chlorophenyl)-3-(oxo-κO)-4(H)-chromen-4-thionato-κS]tungsten(IV) hexafluorophosphate] | concentration-dependent anti-oxidative properties | 11 ± 2 | 2.5 | 15 ± 4 | 7.0 | 19 ± 2 | 3.7 ± 3.2 | 4.8 ± 1.3 | 5.4 ± 5.0 | 86.2 ± 3.1 | 8.5 | 16.8 ± 5.2 | 19.5 ± 2.0 | 13.3 ± 5.1 | 50.4 ± 4.1 | – | – | – | – | 1.6 ± 0.5 | early apoptotic cells [%] AV+ / PI- (HCT116 cells; 2 µM): 2.3 ± 0.0%; late apoptotic cells [%] AV+ / PI+ (HCT116 cells; 2 µM): 8.0 ± 6.2%; necrotic cells [%] AV- / PI+ (HCT116 cells; 2 µM): 2.4 ± 1.5%; viable cells [%] AV- / PI- (HCT116 cells; 2 µM): 87.3 ± 7.8%; ∑apoptotic cells [%] (HCT116 cells; 2 µM): 10.3%; early apoptotic cells [%] AV+ / PI- (HCT116 cells; 20 µM): 1.9 ± 0.4%; late apoptotic cells [%] AV+ / PI+ (HCT116 cells; 20 µM): 31.1 ± 4.7%; necrotic cells [%] AV- / PI+ (HCT116 cells; 20 µM): 11.5 ± 1.2%; viable cells [%] AV- / PI- (HCT116 cells; 20 µM): 55.5 ± 4.8%
3 | CCc1occc(=S)c1[O-].F[P-](F)(F)(F)(F)F.[W+4].c1cc[cH-]c1.c1cc[cH-]c1 [Compound 10, Bis(η^5-cyclopentadienyl)[2-ethyl-3-(oxo-κO)-4-(1H)-pyran-4-thionato-κS] tungsten(IV) hexafluorophosphate] | relevant ROS generation | 114 ± 33 | 1.6 | 69 ± 12 | > 6.9 | > 200 | – | – | – | – | – | – | – | – | – | 3.1 ± 2.8 | 5.1 ± 5.2 | 2.3 ± 0.9 | 89.5 ± 8.5 | 21 ± 1 | ∑apoptotic cells [%] (HT29 cells; 200 µM): 8.2%; early apoptotic cells [%] AV+ / PI- (HCT116 cells; 200 µM): 3.8 ± 3.2%; late apoptotic cells [%] AV+ / PI+ (HCT116 cells; 200 µM): 4.3 ± 3.6%; necrotic cells [%] AV- / PI+ (HCT116 cells; 200 µM): 2.4 ± 0.7%; viable cells [%] AV- / PI- (HCT116 cells; 200 µM): 89.6 ± 7.5%; ∑apoptotic cells [%] (HCT116 cells; 200 µM): 8.0%
